Experimental data as given in paper PMC7048748, “Anxiolytic Drug FGIN-1-27 Ameliorates Autoimmunity by Metabolic Reprogramming of Pathogenic Th17 Cells” (Scientific Reports, 2020).

How the values were obtained:
polarized Th17 cells = assay: IL-17 production in fully differentiated Th17 cells after re-stimulation; assay type: cell-based, mouse; conditions: on re-stimulation
Protocol: We also tested whether FGIN-1-27 regulated IL-17 production in fully differentiated Th17 cells. […] Thus, FGIN-1-27 inhibits Th17 cell differentiation in vitro without compromising T cell activation or survival.
(h) Dose response plot showing effect of FGIN-1-27 on intracellular IL-17 and viability in pre- differentiated Th17 cells after re- stimulation. Data is normalized against […]
(i) Mean clinical scores of mice following active induction of EAE. Mice were injected i/p twice daily with vehicle or FGIN-1-27 for 7 days. Data are pooled from 5 mice/group. The error bars represent SEM.
(j) Binding of FGIN-1-27 to TSPO in a radioligand displacement assay. Inhibition of binding of control (radiolabeled PK-11195) was used to determine binding of FGIN- […]
(1 picture or pasted object on this page, not shown here)

Th17 cells [1] = assay: Transcript levels by qPCR in Th17 cells; assay type: cell-based, mouse
Protocol: Figure 1 FGIN-1-27 Inhibits Th17 Differentiation. Naïve CD4 T cells from spleens and lymph nodes of C57BL/6 mice were differentiated under Th17 polarization conditions and were treated with DMSO (control) or FGIN-1-27. (a) Dose response plot showing effect of FGIN-1-27 on intracellular IL-17 and viability on day 4 post activation quantified by flow cytometry. Data is normalized against DMSO (100%). […] (b) Dot plots showing DMSO or FGIN-1-27 treated cells stained for surface CD4, CD44, intracellular IL-17 and intranuclear RORγt. (c) Transcript levels for the indicated genes after 24 hours of treatment with DMSO or FGIN-1-27 quantified by qPCR. Data was normalized to a housekeeping gene, β-actin. Data are representative of at least 3 independent experiments and the error bars indicate standard deviation.
Figure 5 FGIN-1-27 induces amino acid starvation response (AAR). (a) MA-plot showing shrunken log2 fold-changes of detected genes between the DMSO and FGIN-1-27 RNA-seq samples, ranked by average normalized count. Red dots indicate differentially expressed genes at adjusted p-value <0.05. (b) Transcript levels for the indicated genes after 24 hours of treatment with DMSO or FGIN-1-27 quantified by qPCR. The error bars represent SD. (c) Western blot analysis for phosphorylated eIF2α and ATF4 24 hours after treatment with DMSO or FGIN-1-27 (5 and 10 µM). Data are representative of 3 independent experiments. (d) Amino acids in Th17 cells measured 72 hours after treatment with FGIN-1-27. The error bars represent SD. (e) ROS was measured using cell permeant reagent 2′,7′ –dichlorofluorescin diacetate (DCFDA) at 24 hours following treatment with FGIN-1-27. Filled grey histogram-DMSO, dotted line-FGIN-1-27 (10 µM) and dashed line indicates FGIN-1-27 (5 µM). […]
Total RNA extractions were performed with the RNAeasy kit (Qiagen) followed by cDNA synthesis using High capacity cDNA Reverse Transcription kit (Applied Biosystems). Quantitative PCR was performed on a ViiA 7 (Applied Biosystems) using SYBR Fast qPCR master mix (Kapa Biosystems). […]

Th17 cells [2] = assay: Whole-transcriptome RNA sequencing of treated CD4+ T cells; assay type: cell-based, mouse
Protocol: Total RNA extractions for RNA-seq were performed using the mirVana kit (Applied Biosystems). RNA concentration was measured using the Qubit RNA broad range assay in the Qubit Flurometer (Invitrogen) and RNA integrity was determined with Eukaryote Total RNA Nano Series II ChIP on a 2100 Bioanalyzer (Agilent). RNA-seq libraries were prepared using TruSeq RNA sample preparation kit (Illumina). In brief, oligo-dT purified mRNA was fragmented and subjected to first and second strand cDNA synthesis. cDNA fragments were blunt ended, ligated to Illumina adaptors and PCR amplified to enrich for the fragments ligated to adaptors. The resulting cDNA libraries were verified and quantified on Agilent Bioanalyzer and single-end 96 cycle sequencing was conducted (Illumina).
Reads were aligned to the mm10 genome and the GRCm38 v87 transcriptome with STAR v2.5.2a using default parameters and output tracks normalized by RPM (–outWigNorm RPM). RSEM v1.3 was used to calculate gene counts and TPMs on the transcriptome-aligned reads as previously described[37]. Differential expression analysis was performed in R v3.5.2, using DESeq. 2 v1.22.2. […] Heatmaps were generated with the R package, heatmap. Integrative Genomics Viewer v2.4.19 was used for visualization of normalized bigwig tracks.

[3] = tested on: experimental autoimmune encephalomyelitis (EAE); assay: Active EAE induced with MOG peptide 35-55; assay type: in vivo, mouse; conditions: 30 mg/kg intraperitoneal twice daily for 7 days
Th17 cells [4] = assay: Intracellular metabolites by CE-MS; assay type: cell-based, mouse
Protocol: CD4 T cells were differentiated under Th17 polarization conditions and were either treated with DMSO (control) or FGIN-1-27. The error bars represent SD. (a) Genomic browser screenshots of IL-17a, IL-17f and Rorc loci depicting normalized RNA-seq read coverage (RPM) in Th17 cells treated with DMSO or FGIN-1-27 for 24 hours. […] (c) Heat map showing differentially expressed genes encoding glycolytic enzymes in Th17 cells treated with DMSO or FGIN-1-27 for 24 hours (d) Glycolytic metabolites measured in Th17 cells treated with DMSO or FGIN-1-27 for 72 hours. (e) Metabolites in the TCA cycle were measured in Th17 cells treated with DMSO or FGIN-1-27 for 72 hours.
8 million cells treated with either DMSO or FGIN-1-27 were used for extraction of intracellular metabolites. The cells were washed twice with 5% mannitol and treated with methanol to inactivate the enzymes. Next, the cell extract was treated with Milli-Q water containing internal standards (H3304-1002, Human Metabolome Technologies, inc., Tsuruoka, Japan) and left at rest for another 30 s. The extract was obtained and centrifuged at 2,300 ×g and 4 °C for 5 min and then 800 µL of upper aqueous layer was centrifugally filtered through a Millipore 5-kDa cutoff filter at 9,100 ×g and 4 °C for 120 min to remove proteins. The filtrate was centrifugally concentrated and re-suspended in 50 µL of Milli-Q water for CE-MS analysis. Cationic compounds were measured in the positive mode of CE-TOFMS and anionic compounds were measured in the positive and negative modes of CE-MS/MS according to the methods developed by Soga, et al.[39],[40]. Peaks detected by CE-TOFMS and CE-MS/MS were extracted using automatic integration software (MasterHands, Keio University, Tsuruoka, Japan and MassHunter Quantitative Analysis B.04.00, Agilent Technologies, Santa Clara, CA, USA, respectively) in order to obtain peak information including m/z, migration time (MT), and peak area. The peaks were annotated with putative metabolites from the HMT metabolite database based on their MTs in CE and m/z values determined by TOFMS. The tolerance range for the peak annotation was configured at ±0.5 min for MT and ±10 ppm for m/z. In addition, concentrations of metabolites were calculated by normalizing the peak area of each metabolite with respect to the area of the internal standard and by using standard curves, which were obtained by three-point calibrations. Hierarchical cluster analysis (HCA) and principal component analysis (PCA) were performed by Human Metabolome proprietary software, PeakStat and SampleStat, respectively. Detected metabolites were plotted on metabolic pathway maps using VANTED (Visualization and Analysis of Networks containing Experimental Data) software.

Structure (SMILES): CCCCCCN(CCCCCC)C(=O)Cc1c(-c2ccc(F)cc2)[nH]c2ccccc12 [FGIN-1-27, N, N-di-n-hexyl 2-(4-fluorophenyl) indole-3-acetamide]
- IL-17 producing cells in fully differentiated Th17 cells (polarized Th17 cells): fewer IL-17 producing cells were detected
- ATF4 target genes Asns and Gpt2 (Th17 cells [1]; 24 hours): induced
- expression of RORγt target genes (Il17a, Il17f, Il23r, Ltb4r1, Ccr6) and Stat3 (Th17 cells [1]; 24 hours of treatment, p < 0.0001): significantly downregulated
- CD5L transcript (Th17 cells [1]; 72 hours post treatment): substantial up-regulation
- genes encoding glycolytic enzymes (hexokinase, phosphofructokinase, pyruvate kinase) (Th17 cells [2]; 24 hours): significantly down-regulated
- differentially expressed genes (Th17 cells [2]; vs DMSO, FDR < 0.05, 24 hours): 587
- onset or severity of the symptoms [3]: did not affect onset or severity
- TCA cycle intermediates (citric acid, cis-aconitic acid, 2-hydroxyglutaric acid, malic acid) (Th17 cells [4]; 72 hours): additionally reduced
- lactate (Th17 cells [4]; 72 hours): unchanged levels
- pyruvate (Th17 cells [4]; 72 hours): lower levels
- amino acids (Th17 cells [4]; 72 hours post compound treatment): significant increase
- upper glycolytic intermediates (F6P, F1,6P, 3-PG, 2-PG) (Th17 cells [4]; 72 hours, vs DMSO): substantially reduced
